From article PMC7859335, “Discovery of Diaryl Ether Substituted Tetrahydrophthalazinones as TbrPDEB1 Inhibitors Following Structure-Based Virtual Screening” (Frontiers in Chemistry, 2021)

Target: T1, TbrPDEB1 (Trypanosoma brucei, UniProt Q8WQX9)
T1 construct: The TbrPDEB1 catalytic domain phosphodiesterase activity assays were conducted based on a method reported by Sijm et al
T1 sequence (Q8WQX9 565-918 limits assumed): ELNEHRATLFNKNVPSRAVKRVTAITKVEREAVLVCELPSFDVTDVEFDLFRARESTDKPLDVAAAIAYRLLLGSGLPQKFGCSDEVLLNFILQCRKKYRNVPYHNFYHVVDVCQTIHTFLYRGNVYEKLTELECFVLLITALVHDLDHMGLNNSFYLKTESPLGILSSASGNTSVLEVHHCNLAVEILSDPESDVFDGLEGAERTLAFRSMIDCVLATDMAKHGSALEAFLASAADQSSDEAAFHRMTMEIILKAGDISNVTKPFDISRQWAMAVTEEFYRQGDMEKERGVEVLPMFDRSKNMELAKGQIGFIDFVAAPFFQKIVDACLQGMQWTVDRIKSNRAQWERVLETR
Test: TbrPDEB1 catalytic domain phosphodiesterase activity assay (PDELight HTS cAMP kit)
Type: biochemical
Details: single point assay at 10 μM inhibitor; for inhibition at 10 µM: read-out: TbrPDEB1 (% inh.)
Experimental: The TbrPDEB1 catalytic domain phosphodiesterase activity assays were conducted based on a method reported by Sijm et al. ([2019]) with minor adaptations (Sijm et al., [2019]). The PDELight™ HTS cAMP phosphodiesterase Kit (Lonza, Walkersville, USA) was performed at 25°C in non-binding, low volume 384-well plates (Corning, Kennebunk, ME, USA). […] Single concentration measurements were made at 10 μM inhibitor concentration (triplo measurements/assay, n = 2). Dose-response curves were made in the range 100 μM−10 pM (triplo measurements/assay, n = 3). Compounds were diluted in DMSO (final in-test concentration 1%). Inhibitor dilutions (2.5 μL) were transferred to the 384-well plates, 2.5 μL of PDE in stimulation buffer was added and mixed, 5 μL of cAMP (at 2 × Km up to 20 μM) added and the assay mixture was incubated for 20 min at 300 rpm. […] Then, 5 μL of Lonza Detection reagent (diluted to 80% with reaction buffer) was added and the reaction incubated for 10 min at 300 rpm. Luminescence was read with a Victor3 luminometer using a 0.1 s/well program.
The Ki values of the inhibitors analyzed are represented as the mean of at least three independent experiments with the associated standard error of the mean (S.E.M.).

Structure (SMILES): COc1ccc(C2=NN(C(C)C)C(=O)[C@H]3CC=CC[C@@H]23)cc1Oc1nccs1 (relative stereo) [2a, cis-2-Isopropyl-4-(4-methoxy-3-(thiazol-2-yloxy)phenyl)-4a,5,8,8a-tetrahydrophthalazin-1(2H)-one]
- inhibition at 10 µM: 12 ± 3%

Structure (SMILES): CCOC(=O)c1cnc(Oc2cc(C3=NN(C(C)C)C(=O)[C@@H]4CC=CC[C@H]34)ccc2OC)s1 (relative stereo) [2b, Ethyl 2-(5-(cis-3-isopropyl-4-oxo-3,4,4a,5,8,8a-hexahydrophthalazin-1-yl)-2-methoxyphenoxy)thiazole-5-carboxylate]
- inhibition at 10 µM: 11%

Structure (SMILES): COc1ccc(C2=NN(C(C)C)C(=O)[C@H]3CC=CC[C@@H]23)cc1Oc1ncc(CN2CCOCC2)s1 (relative stereo) [2c, cis-2-Isopropyl-4-(4-methoxy-3-((5-(morpholinomethyl)thiazol-2-yl)oxy)phenyl)-4a,5,8,8a-tetrahydrophthalazin-1(2H)-one]
- inhibition at 10 µM: 40 ± 4%

Structure (SMILES): COc1ccc(C2=NN(C(C)C)C(=O)[C@@H]3CC=CC[C@H]23)cc1Oc1cnc(C(N)=O)cn1 (relative stereo) [2e, 5-(5-(cis-3-Isopropyl-4-oxo-3,4,4a,5,8,8a-hexahydrophthalazin-1-yl)-2-methoxyphenoxy)pyrazine-2-carboxamide]
- inhibition at 10 µM: 18 ± 9%

Structure (SMILES): COc1ccc(C2=NN(C(C)C)C(=O)[C@H]3CC=CC[C@@H]23)cc1Oc1cc(N2CCOCC2)ncn1 (relative stereo) [2f, cis-2-Isopropyl-4-(4-methoxy-3-((6-morpholinopyrimidin-4-yl)oxy)phenyl)-4a,5,8,8a-tetrahydrophthalazin-1(2H)-one]
- inhibition at 10 µM: 11 ± 8%

Structure (SMILES): COc1ccc(C2=NN(C(C)C)C(=O)[C@H]3CC=CC[C@@H]23)cc1Oc1nccc2sccc12 (relative stereo) [2j, cis-2-Isopropyl-4-(4-methoxy-3-(thieno[3,2-c]pyridin-4-yloxy)phenyl)-4a,5,8,8a-tetrahydrophthalazin-1(2H)-one]
- TbrPDEB1 (% inh.): No inhibition

Structure (SMILES): COc1ccc(C2=NN(C(C)C)C(=O)[C@H]3CC=CC[C@@H]23)cc1Oc1ncnc2sccc12 (relative stereo) [2k, cis-2-Isopropyl-4-(4-methoxy-3-(thieno[2,3-d]pyrimidin-4-yloxy)phenyl)-4a,5,8,8a-tetrahydrophthalazin-1(2H)-one]
- TbrPDEB1 (% inh.): No inhibition

Structure (SMILES): COc1ccc(C2=NN(C(C)C)C(=O)[C@H]3CC=CC[C@@H]23)cc1Oc1nccn2cnnc12 (relative stereo) [2l, cis-4-(3-([1,2,4]Triazolo[4,3-a]pyrazin-8-yloxy)-4-methoxyphenyl)-2-isopropyl-4a,5,8,8a-tetrahydrophthalazin-1(2H)-one]
- TbrPDEB1 (% inh.): No inhibition

Structure (SMILES): COc1ccc(C2=NN(C(C)C)C(=O)[C@H]3CC=CC[C@@H]23)cc1Oc1nc2ccccc2s1 (relative stereo) [2p, cis-4-(3-(Benzo[d]thiazol-2-yloxy)-4-methoxyphenyl)-2-isopropyl-4a,5,8,8a-tetrahydrophthalazin-1(2H)-one]
- TbrPDEB1 (% inh.): No inhibition

Structure (SMILES): COC(=O)c1cccnc1Oc1cc(C2=NN(C(C)C)C(=O)[C@@H]3CC=CC[C@H]23)ccc1OC (relative stereo) [3a, Methyl 2-(5-(cis-3-isopropyl-4-oxo-3,4,4a,5,8,8a-hexahydrophthalazin-1-yl)-2-methoxyphenoxy)nicotinate]
- TbrPDEB1 (% inh.): No inhibition

Structure (SMILES): COc1ccc(C2=NN(C(C)C)C(=O)[C@@H]3CC=CC[C@H]23)cc1Oc1cc(C#N)ccn1 (relative stereo) [3b, 2-(5-(cis-3-Isopropyl-4-oxo-3,4,4a,5,8,8a-hexahydrophthalazin-1-yl)-2-methoxyphenoxy)isonicotinonitrile]
- TbrPDEB1 (% inh.): No inhibition

Structure (SMILES): COc1ccc(C2=NN(C(C)C)C(=O)[C@@H]3CC=CC[C@H]23)cc1Oc1cccc(C#N)n1 (relative stereo) [3d, 6-(5-(cis-3-Isopropyl-4-oxo-3,4,4a,5,8,8a-hexahydrophthalazin-1-yl)-2-methoxyphenoxy)picolinonitrile]
- inhibition at 10 µM: 36 ± 6%

Structure (SMILES): COc1ccc(C2=NN(C(C)C)C(=O)[C@@H]3CC=CC[C@H]23)cc1Oc1ncccc1C(=O)O (relative stereo) [3e, 2-(5-(cis-3-Isopropyl-4-oxo-3,4,4a,5,8,8a-hexahydrophthalazin-1-yl)-2-methoxyphenoxy)nicotinic acid]
- TbrPDEB1 (% inh.): No inhibition

Structure (SMILES): COc1ccc(C2=NN(C(C)C)C(=O)[C@@H]3CC=CC[C@H]23)cc1Oc1cc(C(=O)O)ccn1 (relative stereo) [3f, 2-(5-(cis-3-Isopropyl-4-oxo-3,4,4a,5,8,8a-hexahydrophthalazin-1-yl)-2-methoxyphenoxy)isonicotinic acid]
- TbrPDEB1 (% inh.): No inhibition

Structure (SMILES): COc1ccc(C2=NN(C(C)C)C(=O)[C@@H]3CC=CC[C@H]23)cc1Oc1ccc(C(=O)O)cn1 (relative stereo) [3g, 6-(5-(cis-3-Isopropyl-4-oxo-3,4,4a,5,8,8a-hexahydrophthalazin-1-yl)-2-methoxyphenoxy)nicotinic acid]
- inhibition at 10 µM: 11 ± 6%

Structure (SMILES): COc1ccc(C2=NN(C(C)C)C(=O)[C@@H]3CC=CC[C@H]23)cc1Oc1cccc(C(=O)O)n1 (relative stereo) [3h, 6-(5-(cis-3-Isopropyl-4-oxo-3,4,4a,5,8,8a-hexahydrophthalazin-1-yl)-2-methoxyphenoxy)picolinic acid]
- TbrPDEB1 (% inh.): No inhibition

Structure (SMILES): COc1ccc(C2=NN(C(C)C)C(=O)[C@@H]3CC=CC[C@H]23)cc1Oc1ncccc1C(N)=O (relative stereo) [3i, 2-(5-(cis-3-Isopropyl-4-oxo-3,4,4a,5,8,8a-hexahydrophthalazin-1-yl)-2-methoxyphenoxy)nicotinamide]
- TbrPDEB1 (% inh.): No inhibition

Structure (SMILES): COc1ccc(C2=NN(C(C)C)C(=O)[C@@H]3CC=CC[C@H]23)cc1Oc1cc(C(N)=O)ccn1 (relative stereo) [3j, 2-(5-(cis-3-Isopropyl-4-oxo-3,4,4a,5,8,8a-hexahydrophthalazin-1-yl)-2-methoxyphenoxy)isonicotinamide]
- TbrPDEB1 (% inh.): No inhibition

Structure (SMILES): COc1ccc(C2=NN(C(C)C)C(=O)[C@@H]3CC=CC[C@H]23)cc1Oc1ccc(C(N)=O)cn1 (relative stereo) [3k, 6-(5-(cis-3-Isopropyl-4-oxo-3,4,4a,5,8,8a-hexahydrophthalazin-1-yl)-2-methoxyphenoxy)nicotinamide]
- TbrPDEB1 (% inh.): No inhibition

Structure (SMILES): COc1ccc(C2=NN(C(C)C)C(=O)[C@@H]3CC=CC[C@H]23)cc1Oc1cc(C(=O)NCC(N)=O)ccn1 (relative stereo) [3m, N-(2-Amino-2-oxoethyl)-2-(5-(cis-3-isopropyl-4-oxo-3,4,4a,5,8,8a-hexahydrophthalazin-1-yl)-2-methoxyphenoxy)isonicotinamide]
- inhibition at 10 µM: 27%

Structure (SMILES): COc1ccc(C2=NN(C(C)C)C(=O)[C@@H]3CC=CC[C@H]23)cc1Oc1ccc(C(=O)NCC(N)=O)cn1 (relative stereo) [3n, N-(2-Amino-2-oxoethyl)-6-(5-(cis-3-isopropyl-4-oxo-3,4,4a,5,8,8a-hexahydrophthalazin-1-yl)-2-methoxyphenoxy)nicotinamide]
- inhibition at 10 µM: 5 ± 1%

Structure (SMILES): COc1ccc(C2=NN(C(C)C)C(=O)[C@@H]3CC=CC[C@H]23)cc1Oc1cccc(C(=O)NCC(N)=O)n1 (relative stereo) [3o, N-(2-Amino-2-oxoethyl)-6-(5-(cis-3-isopropyl-4-oxo-3,4,4a,5,8,8a-hexahydrophthalazin-1-yl)-2-methoxyphenoxy)picolinamide]
- inhibition at 10 µM: 40 ± 1%

Structure (SMILES): CCCCNC(=O)c1cccnc1Oc1cc(C2=NN(C(C)C)C(=O)[C@@H]3CC=CC[C@H]23)ccc1OC (relative stereo) [3p, N-Butyl-2-(5-(cis-3-isopropyl-4-oxo-3,4,4a,5,8,8a-hexahydrophthalazin-1-yl)-2-methoxyphenoxy)nicotinamide]
- TbrPDEB1 (% inh.): No inhibition

Structure (SMILES): CCCCNC(=O)c1ccnc(Oc2cc(C3=NN(C(C)C)C(=O)[C@@H]4CC=CC[C@H]34)ccc2OC)c1 (relative stereo) [3q, N-Butyl-2-(5-(cis-3-isopropyl-4-oxo-3,4,4a,5,8,8a-hexahydrophthalazin-1-yl)-2-methoxyphenoxy)isonicotinamide]
- TbrPDEB1 (% inh.): No inhibition

Structure (SMILES): CCCCNC(=O)c1ccc(Oc2cc(C3=NN(C(C)C)C(=O)[C@@H]4CC=CC[C@H]34)ccc2OC)nc1 (relative stereo) [3r, N-Butyl-6-(5-(cis-3-isopropyl-4-oxo-3,4,4a,5,8,8a-hexahydrophthalazin-1-yl)-2-methoxyphenoxy)nicotinamide]
- TbrPDEB1 (% inh.): No inhibition

Structure (SMILES): COc1ccc(C2=NN(C(C)C)C(=O)[C@@H]3CC=CC[C@H]23)cc1Oc1ncccc1C(=O)NCc1ccco1 (relative stereo) [3t, N-(Furan-2-ylmethyl)-2-(5-(cis-3-isopropyl-4-oxo-3,4,4a,5,8,8a-hexahydrophthalazin-1-yl)-2-methoxyphenoxy)nicotinamide]
- TbrPDEB1 (% inh.): No inhibition
